Results as given in patent publication US20250281564A1, “DYSREGULATION OF NEUROPROTEASOMES BY APOE ISOFORMS DRIVES ENDOGENOUS TAU AGGREGATION” (The Trustees of Columbia University in the City of New York, priority 2022, published 2025).
Residues, ends and D or L forms follow the SMILES beside them. *: point of attachment. Cbz = O=C(OCc1ccccc1)*

How the values were obtained:
[1] = system: human Tau; assay: Sarkosyl fractionation and Tau immunoblot, hTau-KI primary cortical neurons; type: cell-based; conditions: 1 μM, 12 hours, vs DMSO
Text: (FIG. 5A) Effect of neuroproteasome-specific inhibitor iBEp on Tau aggregation in primary neurons. […] Quantification of soluble and insoluble murine Tau (mTau) intensities normalized to soluble GAPDH. […] (FIG. 5B) Effect of neuroproteasome inhibition on aggregation of human Tau (hTau). […] (FIG. 5C) Generation of reversible neuroproteasome inhibitors to test effects of neuroproteasome inhibition. (Top) Structure of Sulfo-MG132 (SulfoMG). […] (FIG. 5D) Effect of reversible neuroproteasome inhibition using SulfoMG on Tau aggregation. […] Quantification of soluble and insoluble Tau intensities were normalized to soluble GAPDH. Data (right) are mean±SEM normalized respective to DMSO controls. […] (FIG. 5E) Testing iBEp permeability in vivo. […] 72 hours post injection, hippocampi were isolated and subjected to membrane fractionation without detergent. […] (FIG. 5F) Effect of neuroproteasome inhibition on Tau aggregation in vivo.

[2] = system: Thioflavin S-positive aggregates; assay: Thioflavin S staining of hippocampal sections of hTau-KI mice after stereotactic injection; conditions: hTau-KI mice, stereotactic, 72 hours
[3] = system: phosphorylated Tau; assay: Immunohistochemistry for phosphorylated Tau (AT8) in hTau-KI mice after stereotactic injection; conditions: hTau-KI mice, stereotactic, 72 hours

SMILES | sarkosyl-insoluble Tau, hTau-KI neurons [1] | ThioS+ staining, co-injection with iBEp vs iBEp alone [2] | AT8 staining, co-injection with iBEp vs contralateral iBEp alone [3]
CC(C)C[C@@H](C=O)NC(=O)[C@H](CC(C)C)NC(=O)[C@H](CC(C)C)NC(=O)OCc1ccccc1 [MG132, reference compound] (Cbz-Leu-Leu-Leu-aldehyde) | does not affect the sarkosyl-insoluble accumulation of Tau |  | 
C[C@@H]1C[C@@H]([C@H](O)CC2CC(=O)NC(=O)C2)C(=O)[C@@H](C)C1 [cycloheximide, reference compound] |  | complete return to baseline of ThioS+ staining | completely eliminated AT8 staining
